In brackets after ≈: the same amount, converted by molar mass. Where a name gives a salt, the structure may show the parent alone. Read-outs that look alike come from different tables or passages of the source. Bridge positions count the residues as written; N and C are the ends. Square brackets hold non-standard residues; d marks the D form. Peptide text beside a SMILES is read from it. * marks the point of attachment. Decanoyl(3R-OH) = CCCCCCC[C@@H](O)CC(=O)*; dDab = NCC[C@@H](N)C(=O)O; Dab = NCC[C@H](N)C(=O)O
Assays:
[1] = test system: E. coli; test: microbe, parasite or virus in culture
Method: Bacteria were obtained from the American Type Culture Collection (ATCC; Manassas, VA, USA), Merck Sharp & Dohme (Kenilworth, NJ), the Coli Genetic Stock Center (CGSC, Yale University), Network on Antimicrobial Resistance in Staphylococcus aureus (NARSA) via BEI Resources (www.beiresources.org) and independent academic clinical isolate and mutant collections. All species used in this study were described fully in Table S4. Bacteria were cultured in Cation-Adjusted Mueller-Hinton Broth (CAMHB, Bacto Laboratories, Cat No. 212322) or Muller Hinton Broth (MHB, Bacto Laboratories, Cat No. 211443) at 37 °C overnight. A sample of each culture was then diluted 50-fold in MHB and incubated at 37 °C for 1.5–3 h. The stock solutions of vancomycin probes 7, 8 and 9 were prepared at 1.28 mg/mL in sterile water. The compounds were serially diluted two-fold across the wells, with concentrations ranging from 0.06 µg/mL to 128 µg/mL, plated in duplicate. […]

[2] = test system: E. coli ATCC 25922; test: Permeability test in Gram-negative bacteria, flow cytometry method (Fig. 4i); type: cell-based; settings: compound 0.125–128 µg/mL 1 h 37 °C, then probe 9 32 µg/mL 30 min
Method: E. coli ATCC 25922 cells were cultured in LB at 37 °C overnight. […] The resultant mid-log phase cultures were harvested and washed once with HBSS, then resuspended in HBSS to an OD600 of 1. Then 1 mL of the cultures were transferred to Eppendorf tubes and centrifuged. Solutions (1 mL) of antibiotics (0.125–128 µg /mL) and isopropanol (100 %) was added, then left for 1 h at 37 °C with shaking (180 rpm). […] Bacteria were washed again with HBSS, the pellets were suspended in 200 µL of HBSS, and 100 µL of the suspended bacteria solution was added into black 96-well plates (Black flat bottom, 96-Well plate, Corning, Cat No. CLS3915-100EA) for Tecan plate reader measurement (Tecan Plate Reader, Infinite M1000 Pro). Excitation: 475 nm; Emission: 550 nm. On the other hand, suspended bacteria solution was then diluted 1000-fold in HBSS for flow cytometer measurement (Cytoflex S, Beckman Coulter, Inc. 250 S. Kraemer Blvd. Brea, CA 92821 U.S.A.). The detector used here was FITC (Excitation 488 nm; Emission 525/40 nm). 40000 events were collected. The data was analysed using Kaluza Analysis 2.1 software (Beckman Coulter, Inc. 250 S. Kraemer Blvd. Brea, CA 92821 U.S.A.) and statistical software GraphPad Prism 8 (San Diego, CA, U.S.A.).

[3] = Table S2: CGSC7139 DC2 mutant, CaMHB, non-treated polystyrene plate
[4] = Table S2: CGSC7139 DC2 mutant, MHB, non-treated polystyrene plate
[5] = Table S2: MB4902 LpxC mutant, CaMHB, non-treated polystyrene plate
[6] = Table S2: MB4902 LpxC mutant, MHB, non-treated polystyrene plate
[7] = Escherichia coli, ATCC25922, read-out: E. coli MIC, Table S2: ATCC 25922 FDA Control, CaMHB, non-treated polystyrene plate
[8] = Escherichia coli, ATCC25922, read-out: E. coli MIC, Table S2: ATCC 25922 FDA Control, MHB, non-treated polystyrene 96-well plate
[9] = Escherichia coli, read-out: E. coli MIC, Table S2: CGSC7139 DC2 mutant, CaMHB, non-treated polystyrene plate
[10] = Escherichia coli, read-out: E. coli MIC, Table S2: CGSC7139 DC2 mutant, MHB, non-treated polystyrene plate
[11] = Escherichia coli, read-out: E. coli MIC, Table S2: MB4827 K12, CaMHB, non-treated polystyrene plate
[12] = Escherichia coli, read-out: E. coli MIC, Table S2: MB4827 K12, MHB, non-treated polystyrene plate
[13] = Escherichia coli, read-out: E. coli MIC, Table S2: MB4902 LpxC mutant, CaMHB, non-treated polystyrene plate
[14] = Escherichia coli, read-out: E. coli MIC, Table S2: MB4902 LpxC mutant, MHB, non-treated polystyrene plate
[15] = Table S2: ATCC 25922 FDA Control, CaMHB, non-treated polystyrene plate
[16] = Table S2: ATCC 25922 FDA Control, MHB, non-treated polystyrene 96-well plate
[17] = Table S2: MB4827 K12, CaMHB, non-treated polystyrene plate
[18] = Table S2: MB4827 K12, MHB, non-treated polystyrene plate

| Molecule | E. coli MIC [1, 3] [µg/mL] | E. coli MIC [1, 4] [µg/mL] | E. coli MIC [1, 5] [µg/mL] | E. coli MIC [1, 6] [µg/mL] | outer membrane damage: fluorescence of probe 9 labelling after treatment (in words) [2] | MIC [1, 9] [µg/mL] | MIC [1, 10] [µg/mL] | MIC [1, 13] [µg/mL] | MIC [1, 14] [µg/mL] | also measured |
| --- | --- | --- | --- | --- | --- | --- | --- | --- | --- | --- |
| CN[C@H](CC(C)C)C(=O)N[C@H]1C(=O)N[C@@H](CC(N)=O)C(=O)N[C@H]2C(=O)N[C@H]3C(=O)N[C@H](C(=O)N[C@H](C(=O)O)c4cc(O)cc(O)c4-c4cc3ccc4O)[C@H](O)c3ccc(c(Cl)c3)Oc3cc2cc(c3O[C@@H]2O[C@H](CO)[C@@H](O)[C@H](O)[C@H]2O[C@H]2C[C@](C)(N)[C@H](O)[C@H](C)O2)Oc2ccc(cc2Cl)[C@H]1O [1 Vancomycin, Vancomycin] |  |  |  |  |  |  |  |  |  | MIC ([1]; 3 h): > 64 µg/mL |
| CC(C)[C@@H]1NC(=O)CNC(=O)[C@H](CC(N)=O)NC(=O)[C@H](CCCNC(=N)N)NC(=O)[C@H](Cc2ccc(O)cc2)NC(=O)[C@H](C(C)C)NC(=O)[C@@H]2CSSC[C@H](NC(=O)[C@H](C(C)C)NC(=O)[C@H](CCCNC(=N)N)NC1=O)C(=O)N[C@@H](Cc1ccc(O)cc1)C(=O)N[C@@H](CCCNC(=N)N)C(=O)N[C@@H](CCCNC(=N)N)C(=O)N[C@H](C(=O)N[C@@H](CC(N)=O)C(=O)O)CSSC[C@H](NC(=O)[C@H](Cc1ccccc1)NC(=O)CN)C(=O)N[C@@H](Cc1c[nH]c3ccccc13)C(=O)N[C@@H](Cc1ccc(O)cc1)C(=O)N[C@@H](C(C)C)C(=O)N2 [Arenicin-3] (H-GFCWYVCVYRNGVRVCYRRCN-OH; disulfide 3-20, 7-16; N-terminus and C-terminus assumed) | 2 to 8 | 2 to 8 | 1 | 1 to 2 | increased fluorescence at the lowest concentrations |  |  |  |  |  |
| CC[C@H](C)[C@H](NC(=O)[C@@H](NC(=O)[C@H](CO)NC(=O)[C@H](C)NC(=O)[C@@H](NC(=O)[C@H](CCCCN)NC(=O)[C@H](CCCCN)NC(=O)[C@@H](NC(=O)[C@@H](NC(=O)[C@H](CC(=O)O)NC(=O)[C@H](Cc1ccccc1)NC(=O)[C@H](CC(C)C)NC(=O)CN)C(C)C)[C@@H](C)CC)C(C)C)C(C)C)C(=O)NCC(=O)NCC(=O)N[C@@H](CC(C)C)C(N)=O [Citropin 1.1] (H-GLFDVIKKVASVIGGL-NH2; N-terminus and C-terminus assumed) |  |  |  |  | substantially higher concentrations before membrane damage was seen |  |  |  |  |  |
| CC[C@H]1OC(=O)[C@H](C)[C@@H](O[C@H]2C[C@@](C)(OC)[C@@H](O)[C@H](C)O2)[C@H](C)[C@@H](O[C@@H]2O[C@H](C)C[C@H](N(C)C)[C@H]2O)[C@](C)(O)C[C@@H](C)C(=O)[C@H](C)[C@@H](O)[C@]1(C)O [Erythromycin] |  |  |  |  |  | > 64 | > 64 | 8 (≈ 10.9 µM) | 8 (≈ 10.9 µM) | MIC [1, 7]: 64 µg/mL (≈ 87.2 µM); MIC [1, 8]: 64 µg/mL (≈ 87.2 µM); MIC [1, 11]: > 64 µg/mL; MIC [1, 12]: 64 µg/mL (≈ 87.2 µM) |
| CNC(C)C1CCC(N)C(OC2C(N)CC(N)C(OC3OCC(C)(O)C(NC)C3O)C2O)O1 (centres unmarked) [Gentamicin sulfate] |  |  |  |  |  | 0.5 to 2 | 0.5 to 4 | 0.25 to 0.5 | 0.25 to 0.5 | MIC [1, 7]: 1 µg/mL; MIC [1, 8]: 2 µg/mL; MIC [1, 11]: 0.5 to 1 µg/mL; MIC [1, 12]: 0.5 to 1 µg/mL |
| CCCCCCC[C@@H](O)CC(=O)N[C@H](CCN)C(=O)N[C@H]1CCNC(=O)[C@H](CC(C)C)NC(=O)[C@H](CCN)NC(=O)[C@H](CCN)NC(=O)[C@H](CC(C)C)NC(=O)[C@@H](Cc2ccccc2)NC(=O)[C@H](CCN)NC1=O [Octapeptin C4] ({Decanoyl(3R-OH)}-[dDab][Dab][Dab][dF]L[Dab][Dab]L; lactam 2-C (inferred); N-terminus assumed) | 2 to 8 | 1 to 2 | 2 | 2 | substantially higher concentrations before membrane damage was seen |  |  |  |  |  |
| CC[C@H](C)[C@@H]1NC(=O)CNC(=O)[C@H](CCCNC(=N)N)NC(=O)[C@H](Cc2ccc(O)cc2)NC(=O)[C@@H]2CSSC[C@H](NC1=O)C(=O)N[C@@H](Cc1ccc(O)cc1)C(=O)N[C@@H](CCCNC(=N)N)C(=O)N[C@@H](CCCNC(=N)N)C(=O)N[C@H](C(=O)N[C@@H](CCCNC(=N)N)C(N)=O)CSSC[C@H](NC(=O)[C@H](Cc1c[nH]c3ccccc13)NC(=O)[C@@H](N)CCCCN)C(=O)N[C@@H](Cc1ccccc1)C(=O)N[C@@H](CCCNC(=N)N)C(=O)N[C@@H](C(C)C)C(=O)N2 [Tachyplesin-1] (H-KWCFRVCYRGICYRRCR-NH2; disulfide 3-16, 7-12 (inferred); N-terminus and C-terminus assumed) |  |  |  |  | increased fluorescence at the lowest concentrations |  |  |  |  |  |
| COc1cc(Cc2cnc(N)nc2N)cc(OC)c1OC [Trimethoprim] |  |  |  |  |  | 0.25 to 0.5 (≈ 0.861 to 1.72 µM) | 0.25 to 0.5 (≈ 0.861 to 1.72 µM) | 0.5 to 1 (≈ 1.72 to 3.44 µM) | 0.5 to 1 (≈ 1.72 to 3.44 µM) | E. coli MIC [1]: 1 to 2 µg/mL; MIC ([1]; Escherichia coli, ATCC25922, read-out: E. coli MIC): 1 µg/mL (≈ 3.44 µM); MIC ([1]; Escherichia coli, read-out: E. coli MIC): 0.5 µg/mL (≈ 1.72 µM) |
| Colistin sulfate | 0.125 to 0.25 | 0.125 | 0.03 to 0.06 | 0.03 to 0.06 |  |  |  |  |  | E. coli MIC [1, 15]: 0.25 µg/mL; E. coli MIC [1, 16]: 0.25 µg/mL; E. coli MIC [1, 17]: 0.06 to 0.25 µg/mL; E. coli MIC [1, 18]: 0.06 to 0.125 µg/mL |
| Polymyxin B |  |  | 0.03 to 0.06 | 0.03 to 0.06 |  |  |  |  |  | E. coli MIC ([1]; ATCC 29522, NBS 96-well plates (Table 2)): 0.06 µg/mL; E. coli MIC ([1]; CFT073, NBS plates (Table 2)): ≤0.03 µg/mL; E. coli MIC ([1]; CFT073 WaaL mutant, NBS plates (Table 2)): ≤0.03 µg/mL; E. coli MIC ([1]; DC2 mutant, NBS plates (Table 2)): ≤0.03 µg/mL; E. coli MIC ([1]; LpxC mutant, NBS plates (Table 2)): ≤0.03 µg/mL; E. coli MIC ([1]; MB4827 K12, NBS plates (Table 2)): ≤0.03 µg/mL; E. coli MIC [1, 15]: 0.125 µg/mL; E. coli MIC [1, 16]: 0.125 µg/mL; E. coli MIC [1, 17]: 0.125 µg/mL; E. coli MIC [1, 18]: 0.125 µg/mL |

Source: article PMC10102067, “Synthesis of vancomycin fluorescent probes that retain antimicrobial activity, identify Gram-positive bacteria, and detect Gram-negative outer membrane damage” (Communications Biology, 2023)
